Assay results published in patent publication US10670605B2, “Cysteine reactive probes and uses thereof” (The Scripps Research Institute, priority 2015, dated 2020).
Blank lines part the entries; values can stand above or below the compound they belong to.

Legend:
Test in all cases: Competitive isoTOP-ABPP in situ (fragment-treated cells)
Type in all cases: cell-based
[1] = biological target: T1, cysteines in MDA-MB-231 and Ramos cells (Homo sapiens, UniProt Q9UKX7)
T1 sequence (Q9UKX7 1-468): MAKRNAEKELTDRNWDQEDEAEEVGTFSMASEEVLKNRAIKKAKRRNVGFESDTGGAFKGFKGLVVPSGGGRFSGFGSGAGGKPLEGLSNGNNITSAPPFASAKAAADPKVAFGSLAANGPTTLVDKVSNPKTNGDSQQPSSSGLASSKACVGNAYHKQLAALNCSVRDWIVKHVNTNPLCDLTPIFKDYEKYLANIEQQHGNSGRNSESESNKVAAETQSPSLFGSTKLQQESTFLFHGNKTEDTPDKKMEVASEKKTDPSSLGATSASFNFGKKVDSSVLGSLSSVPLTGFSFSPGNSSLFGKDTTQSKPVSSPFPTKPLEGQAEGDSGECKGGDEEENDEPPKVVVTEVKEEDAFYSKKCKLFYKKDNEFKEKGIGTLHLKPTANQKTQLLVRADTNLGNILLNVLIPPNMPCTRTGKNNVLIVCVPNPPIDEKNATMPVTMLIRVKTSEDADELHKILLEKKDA

[2] = biological target: T2, cysteines in MDA-MB-231 and Ramos cells (Homo sapiens, UniProt Q9HA64)
T2 sequence (Q9HA64 1-309): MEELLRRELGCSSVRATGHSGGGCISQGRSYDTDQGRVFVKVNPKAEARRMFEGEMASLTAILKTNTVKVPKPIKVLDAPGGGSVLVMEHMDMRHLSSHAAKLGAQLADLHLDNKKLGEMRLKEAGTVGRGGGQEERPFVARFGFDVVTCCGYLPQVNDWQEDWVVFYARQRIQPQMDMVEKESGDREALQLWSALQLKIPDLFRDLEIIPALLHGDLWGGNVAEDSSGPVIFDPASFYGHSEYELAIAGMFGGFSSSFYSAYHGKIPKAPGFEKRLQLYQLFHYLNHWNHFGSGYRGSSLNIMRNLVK

[3] = biological target: T3, cysteines in MDA-MB-231 and Ramos cells (Homo sapiens, UniProt Q99798); conditions: 200 μM, insitu, 231
T3 sequence (Q99798 28-780): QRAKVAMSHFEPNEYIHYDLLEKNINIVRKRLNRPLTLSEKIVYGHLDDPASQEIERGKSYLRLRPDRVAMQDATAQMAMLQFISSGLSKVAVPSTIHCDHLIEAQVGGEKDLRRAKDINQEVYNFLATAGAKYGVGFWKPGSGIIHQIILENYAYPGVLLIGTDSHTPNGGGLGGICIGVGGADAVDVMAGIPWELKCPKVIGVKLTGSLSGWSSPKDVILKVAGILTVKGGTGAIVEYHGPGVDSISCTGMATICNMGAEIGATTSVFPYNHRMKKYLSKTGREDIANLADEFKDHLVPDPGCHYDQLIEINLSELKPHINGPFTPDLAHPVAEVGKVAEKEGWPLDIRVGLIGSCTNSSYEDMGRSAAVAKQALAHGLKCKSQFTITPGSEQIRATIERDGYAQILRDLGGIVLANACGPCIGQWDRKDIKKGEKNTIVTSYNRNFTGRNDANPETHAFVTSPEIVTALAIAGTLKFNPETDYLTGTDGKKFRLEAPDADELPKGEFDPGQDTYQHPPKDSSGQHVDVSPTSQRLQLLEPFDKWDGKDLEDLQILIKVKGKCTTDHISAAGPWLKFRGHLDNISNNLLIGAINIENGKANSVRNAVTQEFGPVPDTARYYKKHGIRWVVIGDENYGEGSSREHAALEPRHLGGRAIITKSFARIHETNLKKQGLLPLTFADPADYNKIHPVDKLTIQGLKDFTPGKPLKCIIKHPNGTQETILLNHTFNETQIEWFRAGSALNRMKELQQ

[4] = biological target: T4, cysteines in MDA-MB-231 and Ramos cells (Homo sapiens, UniProt Q9UPT9)
T4 sequence (Q9UPT9 1-525): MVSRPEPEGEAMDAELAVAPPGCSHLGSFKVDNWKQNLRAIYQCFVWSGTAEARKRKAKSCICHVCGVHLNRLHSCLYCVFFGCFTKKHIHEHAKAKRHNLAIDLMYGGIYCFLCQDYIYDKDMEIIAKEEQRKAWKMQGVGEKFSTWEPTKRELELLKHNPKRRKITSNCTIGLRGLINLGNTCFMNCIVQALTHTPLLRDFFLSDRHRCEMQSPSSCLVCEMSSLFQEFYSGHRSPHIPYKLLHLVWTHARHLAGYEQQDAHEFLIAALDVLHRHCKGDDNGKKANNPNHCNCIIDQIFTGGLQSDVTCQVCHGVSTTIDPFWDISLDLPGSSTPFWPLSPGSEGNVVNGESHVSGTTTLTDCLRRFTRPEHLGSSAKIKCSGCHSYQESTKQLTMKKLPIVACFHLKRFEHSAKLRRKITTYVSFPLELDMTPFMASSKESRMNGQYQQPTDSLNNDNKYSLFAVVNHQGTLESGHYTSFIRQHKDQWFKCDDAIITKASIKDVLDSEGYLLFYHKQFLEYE

[5] = biological target: T5, cysteines in MDA-MB-231 and Ramos cells (Homo sapiens, UniProt Q9BR61); conditions: 200 μM, insitu
T5 sequence (Q9BR61 1-282): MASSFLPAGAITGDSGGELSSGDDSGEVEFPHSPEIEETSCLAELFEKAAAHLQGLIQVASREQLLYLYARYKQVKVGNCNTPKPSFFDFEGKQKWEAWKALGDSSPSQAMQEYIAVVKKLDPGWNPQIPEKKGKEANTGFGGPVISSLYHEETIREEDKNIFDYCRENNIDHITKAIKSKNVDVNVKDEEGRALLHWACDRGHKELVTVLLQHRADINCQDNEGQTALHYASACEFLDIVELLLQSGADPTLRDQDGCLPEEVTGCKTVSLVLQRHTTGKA

[6] = biological target: cysteines in MDA-MB-231 and Ramos cells (Homo sapiens, UniProt Q9Y5T5); conditions: 200 μM, insitu
[7] = biological target: cysteines in MDA-MB-231 and Ramos cells (Homo sapiens, UniProt Q8N999); conditions: 200 μM, insitu, 231
Sequence of cysteines in MDA-MB-231 and Ramos cells (Homo sapiens, UniProt Q8N999) (Q8N999 whole entry): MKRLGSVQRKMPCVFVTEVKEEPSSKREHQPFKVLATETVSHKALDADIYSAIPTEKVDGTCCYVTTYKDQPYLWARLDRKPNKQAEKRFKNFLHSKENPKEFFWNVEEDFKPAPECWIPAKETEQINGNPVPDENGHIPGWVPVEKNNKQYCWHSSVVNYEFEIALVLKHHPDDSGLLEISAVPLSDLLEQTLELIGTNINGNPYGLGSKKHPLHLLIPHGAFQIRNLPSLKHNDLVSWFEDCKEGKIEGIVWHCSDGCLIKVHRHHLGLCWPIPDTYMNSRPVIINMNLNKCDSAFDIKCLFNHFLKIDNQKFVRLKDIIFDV

Sequence of cysteines in MDA-MB-231 and Ramos cells (Homo sapiens, UniProt Q9Y5T5) (Q9Y5T5 whole entry): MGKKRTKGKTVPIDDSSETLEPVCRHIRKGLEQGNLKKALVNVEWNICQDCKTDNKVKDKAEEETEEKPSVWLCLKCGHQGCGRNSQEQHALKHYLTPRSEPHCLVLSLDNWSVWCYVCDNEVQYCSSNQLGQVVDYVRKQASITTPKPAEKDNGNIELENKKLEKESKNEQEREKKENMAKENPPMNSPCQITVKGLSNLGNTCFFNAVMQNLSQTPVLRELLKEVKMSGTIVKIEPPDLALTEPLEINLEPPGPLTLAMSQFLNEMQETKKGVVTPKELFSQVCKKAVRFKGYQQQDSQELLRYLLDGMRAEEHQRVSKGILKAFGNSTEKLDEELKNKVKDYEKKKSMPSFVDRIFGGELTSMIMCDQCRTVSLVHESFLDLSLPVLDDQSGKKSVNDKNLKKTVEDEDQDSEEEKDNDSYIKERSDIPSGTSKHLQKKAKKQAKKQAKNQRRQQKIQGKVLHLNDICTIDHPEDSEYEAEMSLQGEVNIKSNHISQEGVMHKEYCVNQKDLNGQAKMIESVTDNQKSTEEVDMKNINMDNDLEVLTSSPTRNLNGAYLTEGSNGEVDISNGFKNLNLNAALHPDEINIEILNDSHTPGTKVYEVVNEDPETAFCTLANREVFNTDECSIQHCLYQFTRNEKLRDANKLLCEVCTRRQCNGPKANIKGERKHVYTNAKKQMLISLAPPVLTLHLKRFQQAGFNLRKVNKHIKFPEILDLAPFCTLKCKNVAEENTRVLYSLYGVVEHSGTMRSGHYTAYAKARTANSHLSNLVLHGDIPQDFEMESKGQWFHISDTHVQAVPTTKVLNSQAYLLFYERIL

- isoTOP-ABPP reactivity Q9UKX7_C151 NUP50 ([1]; 200 μM, insitu, 231): 6.1
- isoTOP-ABPP reactivity Q9HA64_C24 FN3KRP ([2]; 200 μM, insitu, 231): 6.3
SMILES: COc1ccc2c(c1)CCCN2C(=O)CCl [compound 2]

- isoTOP-ABPP reactivity Q9HA64_C24 FN3KRP ([2]; 100 μM in situ 231): 20.0
SMILES: COc1ccc(C2CC(c3cccs3)=NN2C(=O)CCl)cc1 (stereo not shown) [compound 4]

- isoTOP-ABPP reactivity Q9HA64_C24 FN3KRP ([2]; 200 μM, insitu, 231): 20.0
SMILES: O=C(CCl)N1CCC(Cc2ccccc2)CC1 [compound 9]

- isoTOP-ABPP ratio, cysteine Q99798_C385 [3]: 0.7
- isoTOP-ABPP ratio, cysteine Q9UPT9_C171 ([4]; 200 μM, insitu, ramos): 9.3
SMILES: O=C(CCl)N1CCN(S(=O)(=O)c2ccccc2F)CC1 [compound 10]

- isoTOP-ABPP ratio, cysteine Q9UKX7_C151 ([1]; 100 μM in situ 231): 1.0
- isoTOP-ABPP ratio, cysteine Q9UPT9_C171 ([4]; 100 μM in situ 231): 0.8
SMILES: Cn1cc(S(=O)(=O)N2CCOCC2)cc1C(=O)NC(=O)CCl [compound 11]

- isoTOP-ABPP ratio, cysteine Q9UKX7_C151 ([1]; 200 μM, insitu, 231): 6.7
SMILES: O=C(CCl)NC(=O)NC12CC3CC(CC(C3)C1)C2 [compound 12]

- isoTOP-ABPP ratio, cysteine Q9BR61_C267 [5]; 231: 1.1
- isoTOP-ABPP ratio, cysteine Q9Y5T5_C205 ([6]; ramos): 20.0
- isoTOP-ABPP ratio, cysteine Q9UPT9_C171 ([4]; 200 μM, insitu, ramos): 3.2
SMILES: O=C(CCl)NCCc1c[nH]c2ccccc12 [compound 13]

- isoTOP-ABPP ratio, cysteine Q99798_C385 [3]: 2.0
- isoTOP-ABPP ratio, cysteine Q9Y5T5_C205 [6]; 231: 0.9
- isoTOP-ABPP ratio, cysteine Q9HA64_C24 ([2]; 200 μM, insitu, 231): 0.6
SMILES: O=C(CCl)NC12CC3CC(CC(C3)C1)C2 [compound 21]

- isoTOP-ABPP ratio, Q9Y5T5_C205 [6]; 231: 1.2
SMILES: CC(C)CCOCCNC(=O)CCl [compound 27]

- isoTOP-ABPP ratio Q8N999_C302 [7]: 0.6
SMILES: COc1ccccc1OCCNC(=O)CCl [compound 28]

- isoTOP-ABPP ratio Q9BR61_C267 ([5]; ramos): 2.5
SMILES: O=C(CCl)N1CCN(CC(=O)N2CCOCC2)CC1 [compound 29]

- isoTOP-ABPP ratio, Q9Y5T5_C205 [6]; 231: 1.5
- isoTOP-ABPP ratio Q9HA64_C24 ([2]; 200 μM, insitu, 231): 1.7
SMILES: C=CC(=O)Nc1cc(F)c(N2CCN(C(=O)OC(C)(C)C)CC2)c(F)c1 [compound 38]

- isoTOP-ABPP ratio Q99798_C385 [3]: 0.1
- isoTOP-ABPP ratio Q9BR61_C267 [5]; 231: 0.5
- isoTOP-ABPP ratio Q9UKX7_C151 ([1]; 200 μM, insitu, 231): 0.8
- isoTOP-ABPP ratio Q8N999_C302 [7]: 0.3
SMILES: Cc1ccc(C=C(C#N)C(=O)NCCN2CCOCC2)cc1 [compound 41]

- isoTOP-ABPP ratio Q8N999_C302 [7]: 20.0
SMILES: CC1CCc2ccccc2N1C(=O)CCl (stereo not shown) [compound 45]
